The values that follow come from ChEMBL document CHEMBL1148640, “Biological evaluation, chelation, and molecular modeling studies of novel metal-chelating inhibitors of NF-kappaB-DNA binding: structure activity relationships” (J Med Chem, 2006).

The test system of the experiment is Radical scavenging activity. Nature of the experiment: Inhibition of superoxide radical scavenging activity. It counts as functional.
A word on the IC50: it is the concentration that gives 50% inhibition. Read a low IC50 as inhibition by little substance. Consider `O=C1C=C/C(=C(/c2ccc(O)c(O)c2)c2ccccc2S(=O)(=O)O)C=C1O` [PYROCATECHOL VIOLET], for which the IC50 came out at 120 µM. On to `O=c1c(Br)cc2c(-c3ccccc3S(=O)(=O)O)c3cc(Br)c(O)c(O)c3oc-2c1O` [BROMOPYROGALLOL RED], for which the IC50 worked out at 51.5 µM. Against the preceding compound, the IC50 is about 2.3-fold lower.

In turn, `CC1=C/C(=C(/c2cc(C)c(O)c(C(=O)O)c2)c2ccccc2S(=O)(=O)O)C=C(C(=O)O)C1=O` [ERIOCHROME CYANINE R] registered an IC50 greater than 250 µM. In turn, `O=c1ccc2c(-c3ccccc3S(=O)(=O)O)c3ccc(O)c(O)c3oc-2c1O` [PYROGALLOL RED] came in with an IC50 of 88 µM. This lies in the double-digit micromolar range. The same measure for `CC1=C/C(=C(/c2cc(C)c(O)c(C(=O)O)c2)c2c(Cl)ccc(S(=O)(=O)O)c2Cl)C=C(C(=O)O)C1=O` [CHROME AZUROL S]: greater than 250 µM.
